Data as given in publication PMC6764862 (Xenobiotica; the fate of foreign compounds in biological …, 2019).
Read-outs that look alike come from different tables or passages of the source.

Experiments:
human AhR (hAhR) = target: T1, human AhR (hAhR) (Homo sapiens, UniProt P35869); assay: AhR-dependent pXRE-SV40-Luc luciferase reporter in HepG2 cells; assay type: cell-based; conditions: for Relative effect potency (REP) HepG2: EC50-based, relative to TCDD, human system; for maximum response, luciferase activity: concentration-response
T1 sequence (P35869 11-848): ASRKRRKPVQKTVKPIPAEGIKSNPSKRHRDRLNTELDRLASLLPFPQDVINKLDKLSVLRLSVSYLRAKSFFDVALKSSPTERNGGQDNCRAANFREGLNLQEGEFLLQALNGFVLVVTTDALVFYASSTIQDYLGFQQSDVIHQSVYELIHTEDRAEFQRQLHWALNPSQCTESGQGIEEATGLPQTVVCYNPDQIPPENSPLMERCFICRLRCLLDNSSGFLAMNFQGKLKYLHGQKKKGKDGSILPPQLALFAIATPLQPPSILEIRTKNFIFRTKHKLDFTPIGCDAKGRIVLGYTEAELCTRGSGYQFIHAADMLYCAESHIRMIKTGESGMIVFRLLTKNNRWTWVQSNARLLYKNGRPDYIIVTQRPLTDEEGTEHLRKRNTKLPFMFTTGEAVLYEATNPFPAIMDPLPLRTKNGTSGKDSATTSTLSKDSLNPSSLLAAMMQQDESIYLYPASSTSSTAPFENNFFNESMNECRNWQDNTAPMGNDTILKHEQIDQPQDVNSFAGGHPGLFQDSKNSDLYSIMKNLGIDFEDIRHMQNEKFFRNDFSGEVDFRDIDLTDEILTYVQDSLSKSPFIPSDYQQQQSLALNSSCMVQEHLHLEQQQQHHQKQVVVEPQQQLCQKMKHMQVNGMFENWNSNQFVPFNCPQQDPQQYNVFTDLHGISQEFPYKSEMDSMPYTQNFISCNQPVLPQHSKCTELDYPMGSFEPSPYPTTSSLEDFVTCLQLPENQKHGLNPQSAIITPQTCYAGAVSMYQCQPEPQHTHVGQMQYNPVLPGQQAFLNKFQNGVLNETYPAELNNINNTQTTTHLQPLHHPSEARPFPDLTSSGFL

mouse AhR (mAhR) [1] = conditions: for REP ratio Hepa1c1c7/HepG2: mouse REP over human REP
mouse AhR (mAhR) [2] = target: T2, mouse AhR (mAhR) (Mus musculus, UniProt P30561); conditions: for Relative effect potency (REP) Hepa1c1c7: EC50-based, relative to TCDD, murine system; for maximum response, luciferase activity: concentration-response
T2 sequence (P30561 10-848): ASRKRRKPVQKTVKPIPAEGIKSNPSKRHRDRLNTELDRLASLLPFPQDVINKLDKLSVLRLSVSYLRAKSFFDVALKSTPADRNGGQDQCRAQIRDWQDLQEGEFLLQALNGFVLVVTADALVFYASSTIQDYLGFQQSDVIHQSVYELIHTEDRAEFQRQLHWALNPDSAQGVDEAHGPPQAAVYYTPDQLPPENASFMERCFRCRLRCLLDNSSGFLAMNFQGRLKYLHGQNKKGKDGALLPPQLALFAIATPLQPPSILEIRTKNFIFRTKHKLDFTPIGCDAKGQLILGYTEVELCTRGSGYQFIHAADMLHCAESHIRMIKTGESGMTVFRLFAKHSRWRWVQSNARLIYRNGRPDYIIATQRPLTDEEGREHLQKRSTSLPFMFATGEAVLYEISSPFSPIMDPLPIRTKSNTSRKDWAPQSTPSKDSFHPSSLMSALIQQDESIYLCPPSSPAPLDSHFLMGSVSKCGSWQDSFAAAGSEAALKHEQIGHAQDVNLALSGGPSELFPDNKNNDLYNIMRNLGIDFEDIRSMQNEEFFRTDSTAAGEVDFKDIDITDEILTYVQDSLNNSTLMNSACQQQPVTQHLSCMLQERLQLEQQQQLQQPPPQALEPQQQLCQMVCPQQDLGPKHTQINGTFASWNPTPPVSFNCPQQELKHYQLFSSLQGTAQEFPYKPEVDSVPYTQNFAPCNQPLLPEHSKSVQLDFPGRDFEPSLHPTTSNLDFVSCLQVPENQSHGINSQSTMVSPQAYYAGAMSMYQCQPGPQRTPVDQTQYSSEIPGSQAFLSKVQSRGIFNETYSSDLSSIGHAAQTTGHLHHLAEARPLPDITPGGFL

EGFR = conditions: up to; highest potency of all congeners tested; ref Hardesty et al., 2018; cited from earlier work
CYP1A1 (AhR target gene) [3] = assay: CYP1A1 mRNA induction in primary human hepatocytes; assay type: cell-based; conditions: primary human hepatocytes
Cyp1a1 (AhR target gene) [4] = assay: Cyp1a1 mRNA induction in primary mouse hepatocytes; assay type: cell-based; conditions: primary mouse hepatocytes
[5] = test system: CYP1A1 mRNA (AhR target gene); assay: CYP1A1 mRNA induction in primary human hepatocytes; assay type: cell-based; conditions: human
mouse AhR (mAhR) [6] = target: T2, mouse AhR (mAhR); assay: in vitro; conditions: hepa1c1c7 cells
[7] = test system: Cyp1a1 mRNA (AhR target gene); assay: Cyp1a1 mRNA induction in primary mouse hepatocytes; assay type: cell-based; conditions: male, C57BL/6, mouse
[8] = read-out: EC50 for AhR luciferase reporter activity, HepG2 cells, 24 h treatment

Compound	Relative effect potency (REP) HepG2 (human AhR (hAhR))	maximum response, luciferase activity (human AhR (hAhR); HepG2 cells) [fold]	WHO 2005 TEF fold lower than the human REP (human AhR (hAhR); TEF vs HepG2 REP of this study) [fold]	EC50 (human AhR (hAhR); [8]) [nM]	fold higher EC50 in Hepa1c1c7 cells compared to HepG2 cells (mouse AhR (mAhR) [1]; luciferase reporter)	REP ratio Hepa1c1c7/HepG2 (mouse AhR (mAhR) [1])	Relative effect potency (REP) Hepa1c1c7 (mouse AhR (mAhR) [2])	maximum response, luciferase activity (mouse AhR (mAhR) [2]; Hepa1c1c7 cells) [fold]	IC50 for EGFR inhibition (EGFR) [log M]	maximal induction of CYP1A1 mRNA (CYP1A1 (AhR target gene) [3]) [fold]	EC50 (CYP1A1 (AhR target gene) [3]; read-out: EC50 for induction of CYP1A1 mRNA, 24 h) [nM]	luciferase activity increase (human AhR (hAhR); HepG2 cells, 10 μM, 24 h, positive controls) [fold]	WHO 2005 TEF fold higher than the human REP (human AhR (hAhR); TEF vs HepG2 REP of this study) [fold]	maximal induction of Cyp1a1 mRNA (Cyp1a1 (AhR target gene) [4]) [fold]	fold more potent (lower EC50) in Hepa1c1c7 than in HepG2, luciferase reporter (mouse AhR (mAhR) [1]; mAhR vs hAhR, cell lines)	luciferase activity increase (mouse AhR (mAhR) [2]; Hepa1c1c7 cells, 10 μM, 24 h, positive controls) [fold]	EC50 at 24 h [5] [nM]	maximal fold induction at 24 h (mouse AhR (mAhR) [6])	EC50 (human AhR (hAhR)) [nM]	EC50 at 24 h [7] [nM]
Clc1ccc(-c2cc(Cl)c(Cl)c(Cl)c2)cc1 [PCB 81]	0.06	34.6	200	6.8 ± 2.7	approximately 5 fold	0.015	0.0009	2.3	–	–	–	–	–	–	–	–	–	–	–	–
Clc1ccc(-c2cc(Cl)c(Cl)c(Cl)c2)cc1Cl [PCB 126]	0.002	31.6	–	250 ± 150	–	3	0.006	5.9	−16.07 ± 0.31	45.1	195 ± 35	42	50	53.3	approximately 53 fold	3.7	–	–	–	–
Clc1ccc(-c2cc(Cl)c(Cl)c(Cl)c2Cl)cc1 [PCB 114]	≤ 0.00007	–	–	≥ 5000	–	≥ 0.5	0.00004	–	–	–	–	–	–	–	–	–	–	–	–	–
Clc1ccc(-c2ccc(Cl)c(Cl)c2)cc1Cl [PCB 77]	≤ 0.00009	–	–	≥ 4000	–	≥ 3.3	0.0003	–	–	–	–	–	–	–	–	–	–	–	–	–
Clc1cc(-c2cc(Cl)c(Cl)c(Cl)c2)cc(Cl)c1Cl [PCB 169]	≤ 0.00005	–	–	≥ 7000	–	≥ 20	0.001	–	–	–	–	–	> 300	–	–	–	–	–	–	–
Clc1cc2c(cc1Cl)Oc1cc(Cl)c(Cl)cc1O2 [TCDD, 2,3,7,8-tetrachlorodibenzo-p-dioxin, reference compound]	1	83	–	–	–	1	–	–	–	–	–	–	–	–	–	–	0.45 ± 0.34	2.2	0.4 ± 0.1	0.04 ± 0.02
